In patent US9113629B2, “4-amino-6-(4-substituted-phenyl)-picolinates and 6-amino-2-(4-substituted-phenyl)-pyrimidine-4-carboxylates and their use as herbicides” (DOW AGROSCIENCES LLC, priority 2013, dated 2015):

How the values were obtained:
[1] = Post-emergent Test III, herbicidal activity in wheat and barley; type: in vivo, Lolium multiflorum, Lolium rigidum; conditions: Lolium multiflorum, post-emergence, 504 h, read-out: Visual Growth Reduction (%) 21 Days After Application LOLSS; for pest or weed control at 35 g/ha: 35 g ai/ha; for pest or weed control at 70 g/ha: 70 g ai/ha; for pest or weed control at 140 g/ha: 140 g ai/ha
Outline: (§1)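 GR20, GR50, GR80 and GR90 come from probit analysis of visual injury scores (0 = none, 100 = complete kill) taken 21 d after treatment. Foliar application was by track sprayer delivering 187 L/ha at five rates, from high down to 1/16×, onto greenhouse plants at the 2–3 leaf stage, with solvent-blank controls.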

[2] = system: APESV: bentgrass (Apera spica-venti); assay: as above; type: in vivo; conditions: for pest or weed control at 35 g/ha / pest or weed control at 70 g/ha / pest or weed control at 140 g/ha: Apera spica-venti, post-emergence, 504 h, read-out: Visual Growth Reduction (%) 21 Days After Application APESV; for pest or weed control at 35 g/ha: 35 g ai/ha; for pest or weed control at 70 g/ha: 70 g ai/ha; for pest or weed control at 140 g/ha: 140 g ai/ha; for GR50 APESV / GR80 APESV: probit analysis, 21 days after application; for GR50 APESV: dose for growth reduction of 50 percent; for GR80 APESV: dose for growth reduction of 80 percent
Outline: as §1

[3] = system: HORSS: barley, including spring and winter (Hordeum vulgare); assay: as above; type: in vivo; conditions: for pest or weed control at 35 g/ha / pest or weed control at 70 g/ha / pest or weed control at 140 g/ha: Hordeum vulgare, post-emergence, 504 h, read-out: Visual Growth Reduction (%) 21 Days After Application HORSS; for pest or weed control at 35 g/ha: 35 g ai/ha; for pest or weed control at 70 g/ha: 70 g ai/ha; for pest or weed control at 140 g/ha: 140 g ai/ha; for GR20 HORSS: probit analysis, dose for growth reduction of 20 percent, 21 days after application, crop
Outline: as §1

[4] = system: KCHSC: kochia (Kochia scoparia); assay: as above; type: in vivo; conditions: for pest or weed control at 35 g/ha / pest or weed control at 70 g/ha / pest or weed control at 140 g/ha: Bassia scoparia, post-emergence, 504 h, read-out: Visual Growth Reduction (%) 21 Days After Application KCHSC; for pest or weed control at 35 g/ha: 35 g ai/ha; for pest or weed control at 70 g/ha: 70 g ai/ha; for pest or weed control at 140 g/ha: 140 g ai/ha; for GR50 KCHSC / GR80 KCHSC: probit analysis, 21 days after application; for GR50 KCHSC: dose for growth reduction of 50 percent; for GR80 KCHSC: dose for growth reduction of 80 percent
Outline: as §1

[5] = system: LOLSS: ryegrass including, Italian ryegrass (Lolium multiflorum), rigid ryegrass (Lolium rigidum), annual ryegrass (Lolium multiflorum subsp. Gaudini); assay: as above; type: in vivo; conditions: probit analysis, 21 days after application; for GR50 LOLSS: dose for growth reduction of 50 percent; for GR80 LOLSS: dose for growth reduction of 80 percent
Outline: as §1

[6] = system: MATSS: scented mayweed (Matricaria chamomilla), pineappleweed (Matricaria matricarioides); assay: as above; type: in vivo; conditions: for pest or weed control at 35 g/ha / pest or weed control at 70 g/ha / pest or weed control at 140 g/ha: Matricaria chamomilla, post-emergence, 504 h, read-out: Visual Growth Reduction (%) 21 Days After Application MATSS; for pest or weed control at 35 g/ha: 35 g ai/ha; for pest or weed control at 70 g/ha: 70 g ai/ha; for pest or weed control at 140 g/ha: 140 g ai/ha; for GR50 MATSS / GR80 MATSS: probit analysis, 21 days after application; for GR50 MATSS: dose for growth reduction of 50 percent; for GR80 MATSS: dose for growth reduction of 80 percent
Outline: as §1

[7] = system: SETVI: green foxtail (Setaria viridis); assay: as above; type: in vivo; conditions: for pest or weed control at 35 g/ha / pest or weed control at 70 g/ha / pest or weed control at 140 g/ha: Setaria viridis, post-emergence, 504 h, read-out: Visual Growth Reduction (%) 21 Days After Application SETVI; for pest or weed control at 35 g/ha: 35 g ai/ha; for pest or weed control at 70 g/ha: 70 g ai/ha; for pest or weed control at 140 g/ha: 140 g ai/ha; for GR50 SETVI / GR80 SETVI: probit analysis, 21 days after application; for GR50 SETVI: dose for growth reduction of 50 percent; for GR80 SETVI: dose for growth reduction of 80 percent
Outline: as §1

[8] = system: TRZSS: wheat, including spring and winter (Triticum aestivum); assay: as above; type: in vivo; conditions: for pest or weed control at 35 g/ha / pest or weed control at 70 g/ha / pest or weed control at 140 g/ha: Triticum aestivum, post-emergence, 504 h, read-out: Visual Growth Reduction (%) 21 Days After Application TRZSS; for pest or weed control at 35 g/ha: 35 g ai/ha; for pest or weed control at 70 g/ha: 70 g ai/ha; for pest or weed control at 140 g/ha: 140 g ai/ha; for GR20 TRZSS: probit analysis, dose for growth reduction of 20 percent, 21 days after application, crop
Outline: as §1

Row | Compound | pest or weed control at 35 g/ha [1] | pest or weed control at 70 g/ha [1] | pest or weed control at 140 g/ha [1] | pest or weed control at 35 g/ha [2] | pest or weed control at 70 g/ha [2] | pest or weed control at 140 g/ha [2] | GR50 APESV [2] | GR80 APESV [2] | pest or weed control at 35 g/ha [3] | pest or weed control at 70 g/ha [3] | pest or weed control at 140 g/ha [3] | GR20 HORSS [3] | pest or weed control at 35 g/ha [4] | pest or weed control at 70 g/ha [4] | pest or weed control at 140 g/ha [4] | GR50 KCHSC [4] | GR80 KCHSC [4] | GR50 LOLSS [5] | GR80 LOLSS [5] | pest or weed control at 35 g/ha [6] | further results
1 | COC(=O)c1nc(-c2ccc(Br)c(F)c2F)cc(N)c1Cl [Compound 114, methyl 4-amino-6-(4-bromo-2,3-difluorophenyl)-3-chloropicolinate] | 0 to 29% | 0 to 29% | 0 to 29% | 0 to 29% | 0 to 29% | 0 to 29% | >140 g ai/ha | >140 g ai/ha | 0 to 29% | 30 to 44% | 30 to 44% | 42 g ai/ha | 60 to 74% | 60 to 74% | 75 to 84% | 3 g ai/ha | >140 g ai/ha | >140 g ai/ha | >140 g ai/ha | 0 to 29% | pest or weed control at 70 g/ha [6]: 0 to 29%; pest or weed control at 140 g/ha [6]: 0 to 29%; GR50 MATSS [6]: >140 g ai/ha; GR80 MATSS [6]: >140 g ai/ha; pest or weed control at 35 g/ha [7]: 0 to 29%; pest or weed control at 70 g/ha [7]: 0 to 29%; pest or weed control at 140 g/ha [7]: 0 to 29%; GR50 SETVI [7]: >140 g ai/ha; GR80 SETVI [7]: >140 g ai/ha; pest or weed control at 35 g/ha [8]: 30 to 44%; pest or weed control at 70 g/ha [8]: 45 to 59%; pest or weed control at 140 g/ha [8]: 45 to 59%; GR20 TRZSS [8]: 16 g ai/ha
2 | COC(=O)c1nc(-c2ccc(I)cc2)c(F)c(N)c1Cl [Compound 118, Methyl 4-amino-6-(4-iodophenyl)-3-chloro-5-fluoropicolinate] | 30 to 44% | 60 to 74% | 75 to 84% | 60 to 74% | 75 to 84% | 85 to 94% | 22 g ai/ha | 60 g ai/ha | 85 to 94% | 85 to 94% | 85 to 94% | 1 g ai/ha | 85 to 94% | 85 to 94% | 95 to 100% | 3 g ai/ha | 17 g ai/ha | 49 g ai/ha | 121 g ai/ha | 60 to 74% | pest or weed control at 70 g/ha [6]: 75 to 84%; pest or weed control at 140 g/ha [6]: 85 to 94%; GR50 MATSS [6]: 14 g ai/ha; GR80 MATSS [6]: 60 g ai/ha; pest or weed control at 35 g/ha [7]: 0 to 29%; pest or weed control at 70 g/ha [7]: 30 to 44%; pest or weed control at 140 g/ha [7]: 60 to 74%; GR50 SETVI [7]: 91 g ai/ha; GR80 SETVI [7]: 184 g ai/ha; pest or weed control at 35 g/ha [8]: 75 to 84%; pest or weed control at 70 g/ha [8]: 85 to 94%; pest or weed control at 140 g/ha [8]: 85 to 94%; GR20 TRZSS [8]: 0 g ai/ha
3 | Nc1c(F)c(-c2ccc(I)cc2)nc(C(=O)O)c1Cl [Compound 45, 4-amino-3-chloro-5-fluoro-6-(4-iodophenyl)picolinic acid] | 60 to 74% | 75 to 84% | 85 to 94% | 85 to 94% | 85 to 94% | 95 to 100% | 8 g ai/ha | 25 g ai/ha | 85 to 94% | 85 to 94% | 95 to 100% | 1 g ai/ha | 85 to 94% | 95 to 100% | 95 to 100% | 2 g ai/ha | 9 g ai/ha | 20 g ai/ha | 69 g ai/ha | 85 to 94% | pest or weed control at 70 g/ha [6]: 95 to 100%; pest or weed control at 140 g/ha [6]: 95 to 100%; GR50 MATSS [6]: 2 g ai/ha; GR80 MATSS [6]: 29 g ai/ha; pest or weed control at 35 g/ha [7]: 60 to 74%; pest or weed control at 70 g/ha [7]: 85 to 94%; pest or weed control at 140 g/ha [7]: 95 to 100%; GR50 SETVI [7]: 18 g ai/ha; GR80 SETVI [7]: 52 g ai/ha; pest or weed control at 35 g/ha [8]: 85 to 94%; pest or weed control at 70 g/ha [8]: 85 to 94%; pest or weed control at 140 g/ha [8]: 85 to 94%; GR20 TRZSS [8]: 1 g ai/ha
